Earlier results in patent US12303619B2, “Polymer implants” (Foundry Therapeutics, Inc., priority 2018, dated 2025).

CCCCN1CCCCC1C(=O)Nc1c(C)cccc1C (stereo not shown) [bupivacaine]
pKa: about 8.0
